Data: patent US9650395B2, “Antibacterial compounds and methods for use” (PTC Therapeutics, Inc., priority 2011, dated 2017)
≈ marks a conversion by molar mass, not a printed value. Like-named read-outs stand apart in the source and are kept apart here.

Tests used:
[1] = test system: Pseudomonas aeruginosa (P. aeruginosa) 27853; experiment: Antibacterial activity, MIC, P. aeruginosa 27853; assay type: cell-based; settings: Pseudomonas aeruginosa, P. aeruginosa 27853; read-out: MIC 27853
Excerpt: (§1) The antibacterial activity from a microbroth dilution method may be presented as the minimum inhibitory concentration (MIC in […]). The MIC value is the lowest concentration of a drug which prevents macroscopically visible bacterial growth under test conditions.
Antibacterial activity of test compounds against the Gram-negative bacterium Pseudomonas aeruginosa (P. aeruginosa) 27853 is shown in Table 5.

[2] = test system: super sensitive Gram-negative Escherichia coli (E. coli) BAS849; experiment: Antibacterial activity, microbroth dilution MIC, E. coli BAS849; assay type: cell-based; settings: Escherichia coli, read-out: MIC, BAS849
[3] = test system: Moraxella catarrhalis (M. catarrhalis) 25238; experiment: Antibacterial activity, MIC, M. catarrhalis 25238; assay type: cell-based; settings: Moraxella catarrhalis, M. catarrhalis 25238; read-out: MIC 25238
[4] = test system: Neisseria meningitidis (N. meningitidis) 13090; experiment: Antibacterial activity, MIC, N. meningitidis 13090; assay type: cell-based; settings: Neisseria meningitidis; N. meningitidis 13090; read-out: MIC 13090
[5] = test system: quinolone resistant E. coli LZ3111; experiment: Antibacterial activity, MIC, quinolone resistant E. coli LZ3111; assay type: cell-based, Escherichia coli; settings: Escherichia coli, read-out: MIC, LZ3111
Excerpt: as §1
Mutations in these regions are known to confer a high level resistance to the quinolone class of antibiotics.

[6] = test system: E. coli ELZ4251 (MDR clinical isolate); experiment: Antibacterial activity, MIC, MDR E. coli ELZ4251; assay type: cell-based, Escherichia coli; settings: Escherichia coli, E. coli ELZ4251, MDR clinical isolate; read-out: MIC ELZ4251
[7] = test system: control Gram-negative E. coli 25922 strain; experiment: Antibacterial activity, microbroth dilution MIC, E. coli 25922; assay type: cell-based, Escherichia coli; settings: Escherichia coli; E. coli 25922, microbroth dilution; read-out: MIC, 25922
[8] = test system: E. coli ELZ4000 (MDR clinical isolate); experiment: Antibacterial activity, MIC, MDR E. coli ELZ4000; assay type: cell-based, Escherichia coli; settings: Escherichia coli; E. coli ELZ4000, MDR clinical isolate; read-out: MIC ELZ4000
[9] = test system: Gram-positive Staphylococcus aureus (S. aureus) 29213; experiment: Antibacterial activity, microbroth dilution MIC, S. aureus 29213; assay type: cell-based; settings: Staphylococcus aureus; S. aureus 29213, microbroth dilution; read-out: MIC, 29213
[10] = test system: Haemophilus influenzae (H. influenzae) 49247; experiment: Antibacterial activity, MIC, H. influenzae 49247; assay type: cell-based; settings: Haemophilus influenzae; H. influenzae 49247; read-out: MIC 49247
Summary of the method: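 A microbroth dilution method gave the minimum inhibitory concentration for each compound against H. influenzae 49247, a Gram-negative bacterium. MIC means the smallest concentration of drug at which no macroscopically visible bacterial growth appears under the conditions of the test.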

[11] = E. coli BAS849, microbroth dilution

Row | SMILES | MIC [1] | MIC [2, 11] | MIC [3] | MIC [4] | MIC [5] | MIC [6] | MIC [7] | MIC [8] | MIC [9] | MIC [10] | MIC [2]
1 | CCc1c(-c2ccc(N3CCCC3=O)cc2)[nH]c(=O)c(C(=O)O)c1O [Cpd 115, 5-ethyl-4-hydroxy-2-oxo-6-[4-(2-oxopyrrolidin-1-yl)phenyl]-1,2-dihydropyridine-3-carboxylic acid] | 12.5 to 150 µg/mL (≈ 36.5 to 438 µM) | < 1 µg/mL | < 1 µg/mL | < 1 µg/mL | 12.5 to 150 µg/mL (≈ 36.5 to 438 µM) | 12.5 to 150 µg/mL (≈ 36.5 to 438 µM) | 3.5 to 12.5 µg/mL (≈ 10.2 to 36.5 µM) | 12.5 to 150 µg/mL (≈ 36.5 to 438 µM) | 12.5 to 150 µg/mL (≈ 36.5 to 438 µM) | < 1 µg/mL | 
2 | CCc1cc(C(=O)O)c(=O)[nH]c1-c1ccc(N2CCC(O)C2)cc1 (centres unmarked) [Cpd 123, 5-ethyl-6-[4-(3-hydroxypyrrolidin-1-yl)phenyl]-2-oxo-1,2-dihydropyridine-3-carboxylic acid] | 3.5 to 12.5 µg/mL (≈ 10.7 to 38.1 µM) | < 1 µg/mL | < 1 µg/mL | < 1 µg/mL | 12.5 to 150 µg/mL (≈ 38.1 to 457 µM) | 12.5 to 150 µg/mL (≈ 38.1 to 457 µM) | < 1 µg/mL | 12.5 to 150 µg/mL (≈ 38.1 to 457 µM) | 3.5 to 12.5 µg/mL (≈ 10.7 to 38.1 µM) | < 1 µg/mL | 
3 | CCc1cc(C(=O)O)c(=O)[nH]c1-c1ccc(N2CCC(OCc3ccccc3)C2)cc1 (centres unmarked) [Cpd 128, 6-{4-[3-(benzyloxy)pyrrolidin-1-yl]phenyl}-5-ethyl-2-oxo-1,2-dihydropyridine-3-carboxylic acid] | 12.5 to 150 µg/mL (≈ 29.9 to 358 µM) | < 1 µg/mL | < 1 µg/mL | < 1 µg/mL | 12.5 to 150 µg/mL (≈ 29.9 to 358 µM) | 12.5 to 150 µg/mL (≈ 29.9 to 358 µM) | 12.5 to 150 µg/mL (≈ 29.9 to 358 µM) | 12.5 to 150 µg/mL (≈ 29.9 to 358 µM) | 1 to 3.5 µg/mL (≈ 2.39 to 8.36 µM) | 1 to 3.5 µg/mL (≈ 2.39 to 8.36 µM) | 
4 | CCc1cc(C(=O)O)c(=O)[nH]c1-c1ccc(N2CCC(N3CCOCC3)C2)cc1.O=C(O)C(F)(F)F (centres unmarked) [Cpd 140, 5-ethyl-6-{4-[3-(morpholin-4-yl)pyrrolidin-1-yl]phenyl}-2-oxo-1,2-dihydropyridine-3-carboxylic acid trifluoroacetate] | 12.5 to 150 µg/mL |  | < 1 µg/mL | < 1 µg/mL | 12.5 to 150 µg/mL | 12.5 to 150 µg/mL | 3.5 to 12.5 µg/mL | 12.5 to 150 µg/mL | 12.5 to 150 µg/mL | < 1 µg/mL | < 1 µg/mL
5 | CCc1cc(C(=O)O)c(=O)[nH]c1-c1ccc(N2CCC[C@@H]2C(F)(F)F)cc1 [Cpd 141, 5-ethyl-2-oxo-6-{4-[(2R)-2-(trifluoromethyl)pyrrolidin-1-yl]phenyl}-1,2-dihydropyridine-3-carboxylic acid] | 12.5 to 150 µg/mL (≈ 32.9 to 394 µM) | < 1 µg/mL | < 1 µg/mL | < 1 µg/mL | 12.5 to 150 µg/mL (≈ 32.9 to 394 µM) | 12.5 to 150 µg/mL (≈ 32.9 to 394 µM) | 12.5 to 150 µg/mL (≈ 32.9 to 394 µM) | 12.5 to 150 µg/mL (≈ 32.9 to 394 µM) | 3.5 to 12.5 µg/mL (≈ 9.2 to 32.9 µM) | < 1 µg/mL | 
6 | CCc1cc(C(=O)O)c(=O)[nH]c1-c1ccc(N2CCC(F)(F)C2)cc1 [Cpd 144, 6-[4-(3,3-difluoropyrrolidin-1-yl)phenyl]-5-ethyl-2-oxo-1,2-dihydropyridine-3-carboxylic acid] | 12.5 to 150 µg/mL (≈ 35.9 to 431 µM) | < 1 µg/mL | < 1 µg/mL | < 1 µg/mL | 12.5 to 150 µg/mL (≈ 35.9 to 431 µM) | 12.5 to 150 µg/mL (≈ 35.9 to 431 µM) | 1 to 3.5 µg/mL (≈ 2.87 to 10 µM) | 12.5 to 150 µg/mL (≈ 35.9 to 431 µM) | 3.5 to 12.5 µg/mL (≈ 10 to 35.9 µM) | < 1 µg/mL | 
7 | CCc1cc(C(=O)O)c(=O)[nH]c1-c1ccc(N2CCC[C@@H]2COC)cc1 [Cpd 147, 5-ethyl-6-{4-[(2R)-2-(methoxymethyl)pyrrolidin-1-yl]phenyl}-2-oxo-1,2-dihydropyridine-3-carboxylic acid] | 12.5 to 150 µg/mL (≈ 35.1 to 421 µM) | < 1 µg/mL | < 1 µg/mL | < 1 µg/mL | 12.5 to 150 µg/mL (≈ 35.1 to 421 µM) | 12.5 to 150 µg/mL (≈ 35.1 to 421 µM) | 3.5 to 12.5 µg/mL (≈ 9.82 to 35.1 µM) | 12.5 to 150 µg/mL (≈ 35.1 to 421 µM) | 3.5 to 12.5 µg/mL (≈ 9.82 to 35.1 µM) | < 1 µg/mL | 
8 | CCc1cc(C(=O)O)c(=O)[nH]c1-c1ccc(N2CC[C@@H](N(C)C)C2)cc1.O=C(O)C(F)(F)F [Cpd 150, 6-{4-[(3R)-3-(dimethylamino)pyrrolidin-1-yl]phenyl}-5-ethyl-2-oxo-1,2-dihydropyridine-3-carboxylic acid trifluoroacetate] | 12.5 to 150 µg/mL |  | < 1 µg/mL | < 1 µg/mL | 12.5 to 150 µg/mL | 12.5 to 150 µg/mL | 1 to 3.5 µg/mL | 12.5 to 150 µg/mL | 12.5 to 150 µg/mL | < 1 µg/mL | < 1 µg/mL
9 | CCc1cc(C(=O)O)c(=O)[nH]c1-c1ccc(N2CC[C@H](N(C)C)C2)cc1.Cl [Cpd 151, 6-{4-[(3S)-3-(dimethylamino)pyrrolidin-1-yl]phenyl}-5-ethyl-2-oxo-1,2-dihydropyridine-3-carboxylic acid hydrochloride] | 12.5 to 150 µg/mL | < 1 µg/mL | < 1 µg/mL | < 1 µg/mL | 12.5 to 150 µg/mL | 12.5 to 150 µg/mL | 1 to 3.5 µg/mL | 12.5 to 150 µg/mL | 12.5 to 150 µg/mL | < 1 µg/mL | 
10 | CCc1cc(C(=O)O)c(=O)[nH]c1-c1ccc(N2CC[C@@H](F)C2)cc1 [Cpd 154, 5-ethyl-6-{4-[(3R)-3-fluoropyrrolidin-1-yl]phenyl}-2-oxo-1,2-dihydropyridine-3-carboxylic acid] | 12.5 to 150 µg/mL (≈ 37.8 to 454 µM) | < 1 µg/mL | < 1 µg/mL | < 1 µg/mL | 12.5 to 150 µg/mL (≈ 37.8 to 454 µM) | 12.5 to 150 µg/mL (≈ 37.8 to 454 µM) | 1 to 3.5 µg/mL (≈ 3.03 to 10.6 µM) | 12.5 to 150 µg/mL (≈ 37.8 to 454 µM) | 3.5 to 12.5 µg/mL (≈ 10.6 to 37.8 µM) | < 1 µg/mL | 
11 | CCc1cc(C(=O)O)c(=O)[nH]c1-c1ccc(Nc2ccccc2)cc1 [Cpd 155, 5-ethyl-2-oxo-6-[4-(phenylamino)phenyl]-1,2-dihydropyridine-3-carboxylic acid] | 12.5 to 150 µg/mL (≈ 37.4 to 449 µM) | < 1 µg/mL | < 1 µg/mL | < 1 µg/mL | 12.5 to 150 µg/mL (≈ 37.4 to 449 µM) | 12.5 to 150 µg/mL (≈ 37.4 to 449 µM) | 1 to 3.5 µg/mL (≈ 2.99 to 10.5 µM) | 12.5 to 150 µg/mL (≈ 37.4 to 449 µM) | 3.5 to 12.5 µg/mL (≈ 10.5 to 37.4 µM) | < 1 µg/mL | 
12 | CCc1cc(C(=O)O)c(=O)[nH]c1-c1ccc(N2CCC[C@H]2C(=O)O)cc1 [Cpd 157, 6-{4-[(2S)-2-carboxypyrrolidin-1-yl]phenyl}-5-ethyl-2-oxo-1,2-dihydropyridine-3-carboxylic acid] | 12.5 to 150 µg/mL (≈ 35.1 to 421 µM) | < 1 µg/mL | < 1 µg/mL | < 1 µg/mL | 12.5 to 150 µg/mL (≈ 35.1 to 421 µM) | 12.5 to 150 µg/mL (≈ 35.1 to 421 µM) | 3.5 to 12.5 µg/mL (≈ 9.82 to 35.1 µM) | 12.5 to 150 µg/mL (≈ 35.1 to 421 µM) | 12.5 to 150 µg/mL (≈ 35.1 to 421 µM) | < 1 µg/mL | 
13 | CCc1c(-c2ccc(N3CC=CC3)cc2)[nH]c(=O)c(C(=O)O)c1O [Cpd 302, 6-[4-(2,5-dihydro-1H-pyrrol-1-yl)phenyl]-5-ethyl-4-hydroxy-2-oxo-1,2-dihydropyridine-3-carboxylic acid] | 3.5 to 12.5 µg/mL (≈ 10.7 to 38.3 µM) | < 1 µg/mL | < 1 µg/mL | < 1 µg/mL | 12.5 to 150 µg/mL (≈ 38.3 to 460 µM) | 12.5 to 150 µg/mL (≈ 38.3 to 460 µM) | 1 to 3.5 µg/mL (≈ 3.06 to 10.7 µM) | 12.5 to 150 µg/mL (≈ 38.3 to 460 µM) | < 1 µg/mL | < 1 µg/mL | 
14 | CCc1c(-c2ccc(N3C[C@@H](O)[C@@H](O)C3)cc2)[nH]c(=O)c(C(=O)O)c1O [Cpd 304, 6-{4-[(3R,4S)-3,4-dihydroxypyrrolidin-1-yl]phenyl}-5-ethyl-4-hydroxy-2-oxo-1,2-dihydropyridine-3-carboxylic acid] | 12.5 to 150 µg/mL (≈ 34.7 to 416 µM) | < 1 µg/mL | < 1 µg/mL | < 1 µg/mL | 12.5 to 150 µg/mL (≈ 34.7 to 416 µM) | 12.5 to 150 µg/mL (≈ 34.7 to 416 µM) | 3.5 to 12.5 µg/mL (≈ 9.71 to 34.7 µM) | 12.5 to 150 µg/mL (≈ 34.7 to 416 µM) | 3.5 to 12.5 µg/mL (≈ 9.71 to 34.7 µM) | < 1 µg/mL | 
